Measurements: the supplement of paper PMC10307832

Tests used:
Test in all cases: relative viability (nuclei count vs DMSO), 5 days (fraction); higher = more cells survive
[1] = compound: Cn1nnc2c(C(N)=O)ncn2c1=O [Temozolomide] + CC(=O)c1c(C)c2cnc(Nc3ccc(N4CCNCC4)cn3)nc2n(C2CCCC2)c1=O [Palbociclib] (partner 0.5 µM)
Summary of the method: (§1)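 Relative viability equals treated-well nuclei counts divided by vehicle-well nuclei counts. Counts came from 4× images of lung cancer cell lines grown in 1536-well plates for 5 days after pin-tool dosing on the day after seeding. Dosing used one drug alone or a fixed anchor-drug dose plus five library-drug doses (not always all listed) in √10 steps, and values are medians of duplicate plates.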

[2] = compound: Cn1nnc2c(C(N)=O)ncn2c1=O [Temozolomide] + Cc1nc(NC(=O)N2CCC[C@H]2C(N)=O)sc1-c1ccnc(C(C)(C)C(F)(F)F)c1 [Alpelisib] (partner 2 µM)
Summary of the method: as §1

[3] = compound: Cn1nnc2c(C(N)=O)ncn2c1=O [Temozolomide] + N=C(N)NC(=N)NCCc1ccccc1 [Phenformin] (partner 250 µM)
Summary of the method: as §1

[4] = compound: Cn1nnc2c(C(N)=O)ncn2c1=O [Temozolomide] + Cc1cc(Nc2cc(N3CCN(C)CC3)nc(Sc3ccc(NC(=O)C4CC4)cc3)n2)n[nH]1 [Tozasertib] (partner 0.1 µM)
Summary of the method: as §1

Cell Line | relative viability ([1]; first compound 0.2 µM) | relative viability ([1]; first compound 0.6325 µM) | relative viability ([1]; first compound 2 µM) | relative viability ([1]; first compound 6.325 µM) | relative viability ([1]; first compound 20 µM) | relative viability ([2]; first compound 0.2 µM) | relative viability ([2]; first compound 0.6325 µM) | relative viability ([2]; first compound 2 µM) | relative viability ([2]; first compound 6.325 µM) | relative viability ([2]; first compound 20 µM) | relative viability ([3]; first compound 0.2 µM) | relative viability ([3]; first compound 0.6325 µM) | relative viability ([3]; first compound 2 µM) | relative viability ([3]; first compound 6.325 µM) | relative viability ([3]; first compound 20 µM) | relative viability ([4]; first compound 0.2 µM) | relative viability ([4]; first compound 0.6325 µM) | relative viability ([4]; first compound 2 µM) | relative viability ([4]; first compound 6.325 µM) | relative viability ([4]; first compound 20 µM)
NCI-H358 | 0.137 | 0.143 | 0.128 | 0.136 | 0.131 | 0.657 | 0.729 | 0.912 | 0.833 | 0.676 | 0.21 | 0.425 | 0.367 | 0.296 | 0.257 | 0.0983 | 0.101 | 0.104 | 0.106 | 0.115
HCC-827 | 0.461 | 0.449 | 0.513 | 0.517 | 0.148 | 0.995 | 0.978 | 1.02 | 0.995 | 0.136 | 0.248 | 0.443 | 0.397 | 0.41 | 0.131 | 0.428 | 0.436 | 0.409 | 0.458 | 0.114
NCI-H1355 | 0.35 | 0.4 | 0.413 | 0.404 | 0.361 | 0.834 | 0.943 | 0.842 | 0.815 | 0.803 | 0.499 | 0.517 | 0.522 | 0.44 | 0.452 | 0.583 | 0.612 | 0.66 | 0.548 | 0.553
NCI-H1793 | – | 0.268 | 0.367 | 0.318 | 0.264 | – | 0.714 | 0.881 | 0.716 | 0.585 | – | 0.359 | 0.394 | 0.297 | 0.323 | – | 0.31 | 0.45 | 0.325 | 0.301
CAL-12T | 0.285 | 0.568 | 0.608 | 0.484 | 0.405 | 1.11 | 1.22 | 1.14 | 1.06 | 1.18 | 0.657 | 0.612 | 0.529 | 0.574 | 0.558 | 0.335 | 0.339 | 0.347 | 0.34 | 0.382
NCI-H1993 | 0.558 | 0.772 | 0.618 | 0.755 | 0.589 | 0.678 | 0.734 | 0.742 | 0.693 | 0.64 | 0.563 | 0.493 | 0.469 | 0.464 | 0.613 | 0.566 | 0.618 | 0.616 | 0.577 | 0.639
NCI-H1650 | 0.339 | 0.406 | 0.362 | 0.355 | 0.28 | – | – | – | – | – | 0.458 | 0.468 | 0.446 | 0.424 | 0.311 | 0.484 | 0.441 | 0.424 | 0.353 | 0.461
NCI-H1563 | – | – | – | – | – | 0.957 | 1 | 1.01 | 0.861 | 0.94 | 0.671 | 0.689 | 0.668 | 0.602 | 0.643 | – | – | – | – | –
NCI-H596 | – | – | – | – | – | 0.582 | 0.494 | 0.567 | 0.48 | 0.482 | 0.797 | 0.827 | 0.658 | 0.659 | 0.787 | 0.978 | 1.04 | 0.89 | 0.769 | 1.01
NCI-H522 | 0.976 | 0.919 | 1.05 | 1.02 | 0.682 | – | – | – | – | – | 0.653 | 0.664 | 0.728 | 0.626 | 0.629 | 0.449 | 0.586 | 0.56 | 0.538 | 0.595
EBC-1 | – | – | – | – | – | 0.982 | 0.812 | 0.918 | 0.769 | 0.871 | – | – | – | – | – | – | – | – | – | –
ChaGo-K-1 | 1.05 | 0.967 | 0.967 | 0.873 | 0.917 | – | – | – | – | – | 0.595 | 0.484 | 0.617 | 0.413 | 0.509 | 0.263 | 0.209 | 0.3 | 0.191 | 0.226
NCI-H1648 | – | 0.23 | 0.318 | 0.273 | 0.283 | – | – | – | – | – | – | – | – | – | – | – | 0.525 | 0.397 | 0.448 | 0.435
NCI-H1299 | – | – | – | – | – | 1.11 | 1.11 | 1.14 | 1.04 | 1.05 | – | – | – | – | – | – | – | – | – | –
NCI-H1792 | 0.569 | 0.654 | 0.638 | 0.663 | 0.619 | 0.535 | 0.749 | 0.677 | 0.651 | 0.791 | 0.61 | 0.352 | 0.328 | 0.155 | 0.271 | – | – | – | – | –
NCI-H1623 | – | – | – | – | – | – | – | – | – | – | – | 0.646 | 0.521 | 0.563 | 0.309 | – | 0.421 | 0.365 | 0.475 | 0.293
SW 900 | 0.598 | 0.612 | 0.556 | 0.559 | 0.468 | – | – | – | – | – | 0.754 | 0.671 | 0.556 | 0.464 | 0.718 | 0.63 | 0.703 | 0.498 | 0.542 | 0.462
A549 | – | – | – | – | – | 0.828 | 0.738 | 0.69 | 0.738 | 0.773 | – | 0.161 | 0.136 | 0.147 | 0.177 | – | – | – | – | –
NCI-H2342 | 0.501 | 0.529 | 0.521 | 0.491 | 0.53 | – | – | – | – | – | 0.57 | 0.629 | 0.625 | 0.662 | 0.563 | 0.49 | 0.57 | 0.492 | 0.598 | 0.346
Calu-6 | – | – | – | – | – | 1.03 | 0.989 | 0.984 | 0.973 | 0.977 | – | – | – | – | – | – | – | – | – | –
IA-LM | – | – | – | – | – | 0.956 | 0.716 | 0.811 | 0.716 | 0.711 | – | – | – | – | – | – | – | – | – | –
